For data set [1] the following is noted: patients treated with AChE inhibitors such as tacrine; cited from earlier work.
The next data set has as its target T1, Human M4 (Homo sapiens, UniProt P08173).
T1 construct: expressed in transfected cells; host or cells: CHO-K1 (ATCC), stably expressing hM4 and Gqi5
T1 sequence (P08173 1-479): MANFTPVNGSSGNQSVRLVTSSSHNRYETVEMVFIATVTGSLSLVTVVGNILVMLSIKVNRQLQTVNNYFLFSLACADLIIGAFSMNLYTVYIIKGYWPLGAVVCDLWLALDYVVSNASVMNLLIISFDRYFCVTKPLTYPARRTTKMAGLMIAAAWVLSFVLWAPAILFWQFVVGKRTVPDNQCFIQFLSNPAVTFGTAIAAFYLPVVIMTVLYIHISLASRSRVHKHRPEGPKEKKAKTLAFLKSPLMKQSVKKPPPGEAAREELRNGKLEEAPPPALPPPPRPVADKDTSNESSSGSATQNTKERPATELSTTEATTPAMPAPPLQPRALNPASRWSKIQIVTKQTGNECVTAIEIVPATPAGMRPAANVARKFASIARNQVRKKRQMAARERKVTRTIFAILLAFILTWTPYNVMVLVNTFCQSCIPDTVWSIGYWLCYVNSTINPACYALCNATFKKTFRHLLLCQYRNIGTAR
Put plainly: mAChR M4 cell-based functional assay (calcium flux, potentiation of EC20 acetylcholine response in CHO-K1 hM4-Gqi5 cells). The note with it: for Emax at 30 µM: CHO-K1, % ACh maximum at 30 μM, human M4; for EC50: positive allosteric modulator mode, EC20 acetylcholine, CHO-K1 cells with human M4 and Gqi5. As for the experimental part: Human M4 cDNA, along with the chimeric G protein Gqi5, were transfected into Chinese hamster ovary (CHO—K1) cells purchased from the American Type Culture Collection using Lipofectamine2000. hM4-Gqi5 cells were grown in Ham's F-12 medium containing 10% heat-inactivated fetal bovine serum (FBS), 20 mM HEPES, 50 μg/mL G418 sulfate, and 500 μg/mL Hygromycin B. rM4-Gqi5 cells were grown in DMEM containing 10% heat-inactivated FBS, 20 mM HEPES, 400 μg/mL G418 sulfate, and 500 μg/mL Hygromycin B.
For high throughput measurement of agonist-evoked increases in intracellular calcium, CHO—K1 cells stably expressing muscarinic receptors were plated in growth medium lacking G418 and hygromycin at 15,000 cells/20 μL/well in Greiner 384-well black-walled, tissue culture (TC)-treated, clear-bottom plates (VWR). Cells were incubated overnight at 37° C. and 5% CO2. The next day, cells were washed using an ELX 405 (BioTek) with assay buffer; the final volume was then aspirated to 20 μL. Next, 20 μL of a 2.3 μM stock of Fluo-4/acetoxymethyl ester (Invitrogen, Carlsbad, Calif.), prepared as a 2.3 mM stock in DMSO and mixed in a 1:1 ratio with 10% (w/v) Pluronic F-127 and diluted in assay buffer, was added to the wells and the cell plates were incubated for 50 min at 37° C. and 5% CO2. Dye was removed by washing with the ELX 405 and the final volume was aspirated to 20 μL. Compound master plates were formatted in an 11 point concentration-response curve (CRC) format (1:3 dilutions) in 100% DMSO with a starting concentration of 10 mM using a BRAVO liquid handler (Agilent). Test compound CRCs were then transferred to daughter plates (240 nL) using the Echo acoustic plate reformatter (Labcyte, Sunnyvale, Calif.) and then diluted into assay buffer (40 μL) to a 2× stock using a Thermo Fisher Combi (Thermo Fisher Scientific, Waltham, Mass.).
Calcium flux was measured using the Functional Drug Screening System (FDSS) 6000 or 7000 (Hamamatsu Corporation, Tokyo, Japan) as an increase in the fluorescent static ratio. Compounds were applied to cells (20 μL, 2×) using the automated system of the FDSS at 2-4 seconds into the protocol and the data were collected at 1 Hz. At 144 seconds, 10 μL of an EC20 concentration of the muscarinic receptor agonist acetylcholine was added (5×), followed by the addition of 12 μL of an EC80 concentration of acetylcholine at the 230 second time point (5×). Agonist activity was analyzed as a concentration-dependent increase in calcium mobilization upon compound addition. Positive allosteric modulator activity was analyzed as a concentration-dependent increase in the EC20 acetylcholine response. With the acetylcholine EC20 set as baseline, the test compound EC50 is determined as the concentration that produces an increase above baseline of 50% of the maximum increase in acetylcholine response elicted by the test compound. Antagonist activity was analyzed as a concentration-dependent decrease in the EC80 acetylcholine response. Concentration-response curves were generated using a four-parameter logistical equation in XLFit curve fitting software (IDBS, Bridgewater, N.J.) for Excel (Microsoft, Redmond, Wash.) or Prism (GraphPad Software, Inc., San Diego, Calif.).
Compounds were synthesized as described above. Activity (EC50 and Emax) was determined in the mAChR M4 cell-based functional assay as described above and the data are shown in Table 3. The compound numbers correspond to the compound numbers used in Examples 2-4 and Tables 1 and 2.
A general note: A change in cytosolic calcium serves as a functional read-out for many receptors and channels.

SMILES strings stand for the structures.

With `Nc1c2c(nc3ccccc13)CCCC2` [tacrine], the “patients with elevated liver transaminases (hepatotoxicity)” value in data set [1] is “about 30%”. On to `COc1cc(N2CC(NC(=O)c3ccc4nnc(C)c(C)c4c3)C2)c(Cl)cn1` [Compound 14, N-[1-(5-chloro-2-methoxy-4-pyridyl)azetidin-3-yl]-3,4-dimethyl-cinnoline-6-carboxamide], for which, on Human M4, the Emax – broadly, the greatest response seen or fitted, relative to the assay's reference – at 30 µM worked out at 74.1% and the 50% effective concentration (EC50) (as a rule, the concentration giving half of the maximal effect) was 370 nM. Taken in the same sequence, the figures for `Cc1nnc2ccc(C(=O)NC3CN(c4ncc(C#N)cc4Cl)C3)cc2c1C` [Compound 29, N-[1-(3-chloro-5-cyano-2-pyridyl)azetidin-3-yl]-3,4-dimethyl-cinnoline-6-carboxamide] were 71.6% and 300 nM. Taken in the same sequence, the figures for `Cc1nnc2ccc(C(=O)NC3CN(c4cccc(C(F)(F)F)n4)C3)cc2c1C` [Compound 38, 3,4-dimethyl-N-[1-[6-(trifluoromethyl)-2-pyridyl]azetidin-3-yl]cinnoline-6-carboxamide] were 64.2% and 3360 nM. Take `Cc1nnc2ccc(C(=O)NC3CC(F)C3)cc2c1C` (centres unmarked) [Compound 40, N-(3-fluorocyclobutyl)-3,4-dimethyl-cinnoline-6-carboxamide]: on Human M4, the Emax at 30 µM stood at 59.3% and the 50% effective concentration (EC50) is greater than 10000 nM. As for `Cc1nnc2ccc(C(=O)NC3CN(c4ncccc4Cl)C3)cc2c1C` [Compound 35, N-[1-(3-chloro-2-pyridyl)azetidin-3-yl]-3,4-dimethyl-cinnoline-6-carboxamide], at Human M4, the maximal effect (Emax) at 30 µM is 83.7% and the EC50 was 950 nM. For `Cc1nnc2ccc(C(=O)NC3CN(c4ccc(C#N)cn4)C3)cc2c1C` [Compound 25, N-[1-(5-cyano-2-pyridyl)azetidin-3-yl]-3,4-dimethyl-cinnoline-6-carboxamide], at Human M4, the Emax at 30 µM was 80.6% and the EC50 was found to be 1030 nM. Consider `Cc1nnc2ccc(C(=O)NC3CN(c4ncc(F)cn4)C3)cc2c1C` [Compound 19, N-[1-(5-fluoropyrimidin-2-yl)azetidin-3-yl]-3,4-dimethyl-cinnoline-6-carboxamide], for which, on Human M4, the Emax at 30 µM was 75.4% and the EC50 was greater than 10000 nM.

Consider `Cc1nnc2ccc(C(=O)NC3CN(c4ncc(Cl)cc4F)C3)cc2c1C` [Compound 36, N-[1-(5-chloro-3-fluoro-2-pyridyl)azetidin-3-yl]-3,4-dimethyl-cinnoline-6-carboxamide], for which, on Human M4, the maximum response (Emax) at 30 µM was determined as 82% and the EC50 was determined as 650 nM. On the same counts, the results for `Cc1cc(C)c2cc(C(=O)NCc3cccnc3)ccc2n1` [Compound 7, 2,4-dimethyl-N-(3-pyridylmethyl)quinoline-6-carboxamide] are 32% and greater than 10000 nM. Regarding `Cc1nnc2ccc(C(=O)NCc3ccc(C(C)(C)O)cc3)cc2c1C` [Compound 16, N-[[4-(1-hydroxy-1-methyl-ethyl)phenyl]methyl]-3,4-dimethyl-cinnoline-6-carboxamide], on Human M4, the Emax at 30 µM worked out at 71.2% and the EC50 is greater than 10000 nM. On the same counts, the results for `COc1cc(N2CC(NC(=O)c3ccc4nc(C)cc(C)c4c3)C2)c(Cl)cn1` [Compound 2, N-[1-(5-chloro-2-methoxy-4-pyridyl)azetidin-3-yl]-2,4-dimethyl-quinoline-6-carboxamide] are 39.3% and 540 nM.

For `Cc1cc(N2CC(NC(=O)c3ccc4nc(C)cc(C)c4c3)C2)cc(OC(F)F)n1` [Compound 8, N-[1-[2-(difluoromethoxy)-6-methyl-4-pyridyl]azetidin-3-yl]-2,4-dimethyl-quinoline-6-carboxamide], on Human M4, the maximal response (Emax) at 30 µM worked out at 41.1% and the EC50 amounted to 1700 nM.

As for `Cc1nnc2ccc(C(=O)NC3CN(c4cccc(Cl)n4)C3)cc2c1C` [Compound 32, N-[1-(6-chloro-2-pyridyl)azetidin-3-yl]-3,4-dimethyl-cinnoline-6-carboxamide], on Human M4, the maximal response (Emax) at 30 µM was 77.2% and the EC50 is 1320 nM. On the same counts, the results for `Cc1cc(C)c2cc(C(=O)NC3CN(c4ncc(C(F)(F)F)cn4)C3)ccc2n1` [Compound 3, 2,4-dimethyl-N-[1-[5-(trifluoromethyl)pyrimidin-2-yl]azetidin-3-yl]quinoline-6-carboxamide] are 44.2% and 6900 nM.

As to `Cc1nnc2ccc(C(=O)NC3CN(c4ncc(F)cc4Cl)C3)cc2c1C` [Compound 26, N-[1-(3-chloro-5-fluoro-2-pyridyl)azetidin-3-yl]-3,4-dimethyl-cinnoline-6-carboxamide], at Human M4, the maximum response (Emax) at 30 µM amounted to 79.7% and the EC50 is 460 nM.

Regarding `Cc1nnc2ccc(C(=O)NC3CCCC3)cc2c1C` [Compound 41, N-cyclopentyl-3,4-dimethyl-cinnoline-6-carboxamide], on Human M4, the Emax at 30 µM was found to be 53.5% and the concentration for a half-maximal effect (EC50) is greater than 10000 nM. As for `Cc1nnc2ccc(C(=O)NC3CN(c4cnc(C(F)(F)F)cn4)C3)cc2c1C` [Compound 21, 3,4-dimethyl-N-[1-[5-(trifluoromethyl)pyrazin-2-yl]azetidin-3-yl]cinnoline-6-carboxamide], on Human M4, the maximum response (Emax) at 30 µM is 77.8% and the EC50 is greater than 10000 nM.
